Calls of active or inactive are those of the source. How the calls were made is not given here.
Tested on: rodent carcinogenicity bioassays, tumor incidence
Test: CCRIS carcinogenicity studies
Method in brief: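 Archive of carcinogenicity, mutagenicity, tumor promotion and tumor inhibition results drawn from journals, NCI reports and other sources, expert-reviewed; covers 1985-2011 and is no longer updated.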

## Nc1cc(Cl)cc(C(=O)O)c1Cl
Species: MOUSE, Strain/Sex: B6C3F1/FEMALE, Route: ORAL, Dose: 0, 10000, 20000 PPM IN DIET FOR 80 WK (STUDY DURATION: 91-92 WK), Dose: 0, 10000, 20000 PPM IN DIET FOR 80 WK (STUDY DURATION: 91-92 WK), Tumor Site: Type of Lesion: LIVER: HEPATOCELLULAR CARCINOMA
  carcinogen call: active; positive
Species: MOUSE, Strain/Sex: B6C3F1/MALE, Route: ORAL, Dose: 0, 10000, 20000 PPM IN DIET FOR 80 WK (STUDY DURATION: 91-92 WK), Dose: 0, 10000, 20000 PPM IN DIET FOR 80 WK (STUDY DURATION: 91-92 WK), Tumor Site: Type of Lesion: LIVER: HEPATOCELLULAR CARCINOMA
  carcinogen call: equivocal
Species: RAT, Strain/Sex: OSBORNE-MENDEL/FEMALE, Route: ORAL, Dose: 0, 10000, 20000 PPM IN DIET FOR 80 WK (STUDY DURATION: 112-113 WK ), Dose: 0, 10000, 20000 PPM IN DIET FOR 80 WK (STUDY DURATION: 112-113 WK )
  carcinogen call: inactive; negative
Species: RAT, Strain/Sex: OSBORNE-MENDEL/MALE, Route: ORAL, Dose: 0, 10000, 20000 PPM IN DIET FOR 80 WK (STUDY DURATION: 112-113 WK), Dose: 0, 10000, 20000 PPM IN DIET FOR 80 WK (STUDY DURATION: 112-113 WK)
  carcinogen call: inactive; negative

## OCl
Species: RAT, Strain/Sex: SPRAGUE-DAWLEY/FEMALE, Route: ORAL, Dose: 0, 100, 500, 750 MG/L IN DRINKING WATER FOR 104 WK (STUDY DURATION: LIFETIME), Dose: 0, 100, 500, 750 MG/L IN DRINKING WATER FOR 104 WK (STUDY DURATION: LIFETIME), Tumor Site: Type of Lesion: LYMPHATIC SYSTEM: LYMPHOMA OR LEUKEMIA
  carcinogen call: active; positive
Species: RAT, Strain/Sex: SPRAGUE-DAWLEY/MALE, Route: ORAL, Dose: 0, 100, 500, 750 MG/L IN DRINKING WATER FOR 104 WK (STUDY DURATION: LIFETIME), Dose: 0, 100, 500, 750 MG/L IN DRINKING WATER FOR 104 WK (STUDY DURATION: LIFETIME)
  carcinogen call: inactive; negative

## COC(=O)COc1ccc(Cl)cc1
Species: NEWT, Route: IMMERSION, Dose: 0, 100, 200, 400 PPM 4 D/WK FOR 12 MO (STUDY DURATION: 24 MO), Dose: 0, 100, 200, 400 PPM 4 D/WK FOR 12 MO (STUDY DURATION: 24 MO)
  carcinogen call: inactive; negative

## C=C(C)CCl
Species: MOUSE, Strain/Sex: B6C3F1/FEMALE, Route: GAVAGE, Dose: 0, 100, 200 MG/KG IN CORN OIL 5 D/WK FOR 103 WK (STUDY DURATION: 2 YR), Dose: 0, 100, 200 MG/KG IN CORN OIL 5 D/WK FOR 103 WK (STUDY DURATION: 2 YR), Tumor Site: Type of Lesion: FORESTOMACH: EPITHELIAL HYPERPLASIA, SQUAMOUS CELL PAPILLOMA
  carcinogen call: active; positive
Species: MOUSE, Strain/Sex: B6C3F1/FEMALE, Route: GAVAGE, Dose: 0, 100, 200 MG/KG IN CORN OIL 5 D/WK FOR 103 WK, Dose: 0, 100, 200 MG/KG IN CORN OIL 5 D/WK FOR 103 WK, Tumor Site: Type of Lesion: FORESTOMACH: SQUAMOUS CELL PAPILLOMA, SQUAMOUS CELL PAPILLOMA OR CARCINOMA
  carcinogen call: active; positive
Species: MOUSE, Strain/Sex: B6C3F1/MALE, Route: GAVAGE, Dose: 0, 100, 200 MG/KG IN CORN OIL 5 D/WK FOR 103 WK (STUDY DURATION: 2 YR), Dose: 0, 100, 200 MG/KG IN CORN OIL 5 D/WK FOR 103 WK (STUDY DURATION: 2 YR), Tumor Site: Type of Lesion: FORESTOMACH: EPITHELIAL HYPERPLASIA, SQUAMOUS CELL PAPILLOMA, SQUAMOUS CELL CARCINOMA
  carcinogen call: active; positive
Species: MOUSE, Strain/Sex: B6C3F1/MALE, Route: GAVAGE, Dose: 0, 100, 200 MG/KG IN CORN OIL 5 D/WK FOR 103 WK, Dose: 0, 100, 200 MG/KG IN CORN OIL 5 D/WK FOR 103 WK, Tumor Site: Type of Lesion: FORESTOMACH: SQUAMOUS CELL PAPILLOMA, SQUAMOUS CELL CARCINOMA
  carcinogen call: active; positive
Species: MOUSE, Strain/Sex: BDF1/FEMALE, Route: INHALATION, Dose: 0, 50, 100, 200 PPM 6 HR/D 5 D/WK FOR 104 WK (STUDY DURATION: 104 WK), Dose: 0, 50, 100, 200 PPM 6 HR/D 5 D/WK FOR 104 WK (STUDY DURATION: 104 WK), Tumor Site: Type of Lesion: HARDERIAN GLAND: ADENOMA
  carcinogen call: active; positive
Species: MOUSE, Strain/Sex: BDF1/MALE, Route: INHALATION, Dose: 0, 50, 100, 200 PPM 6 HR/D 5 D/WK FOR 104 WK (STUDY DURATION: 104 WK), Dose: 0, 50, 100, 200 PPM 6 HR/D 5 D/WK FOR 104 WK (STUDY DURATION: 104 WK)
  carcinogen call: inactive; negative
Species: RAT, Strain/Sex: F344/FEMALE, Route: GAVAGE, Dose: 0, 75, 150 MG/KG IN CORN OIL 5 D/WK FOR 103 WK (STUDY DURATION: 2 YR), Dose: 0, 75, 150 MG/KG IN CORN OIL 5 D/WK FOR 103 WK (STUDY DURATION: 2 YR), Tumor Site: Type of Lesion: FORESTOMACH: BASAL CELL HYPERPLASIA, SQUAMOUS CELL PAPILLOMA
  carcinogen call: active; positive
Species: RAT, Strain/Sex: F344/FEMALE, Route: GAVAGE, Dose: 0, 75, 150 MG/KG IN CORN OIL 5 D/WK FOR 103 WK, Dose: 0, 75, 150 MG/KG IN CORN OIL 5 D/WK FOR 103 WK, Tumor Site: Type of Lesion: FORESTOMACH: PAPILLOMA
  carcinogen call: active; positive
Species: RAT, Strain/Sex: F344/MALE, Route: GAVAGE, Dose: 0, 75, 150 MG/KG IN CORN OIL 5 D/WK FOR 103 WK (STUDY DURATION: 2 YR), Dose: 0, 75, 150 MG/KG IN CORN OIL 5 D/WK FOR 103 WK (STUDY DURATION: 2 YR), Tumor Site: Type of Lesion: FORESTOMACH: BASAL CELL OR EPITHELIAL HYPERPLASIA, SQUAMOUS CELL PAPILLOMA
  carcinogen call: active; positive
Species: RAT, Strain/Sex: F344/MALE, Route: GAVAGE, Dose: 0, 75, 150 MG/KG IN CORN OIL 5 D/WK FOR 103 WK, Dose: 0, 75, 150 MG/KG IN CORN OIL 5 D/WK FOR 103 WK, Tumor Site: Type of Lesion: FORESTOMACH: PAPILLOMA
  carcinogen call: active; positive

## O=C1OC2(c3ccc(O)cc3Oc3cc(O)ccc32)c2ccccc21
Species: MOUSE, Strain/Sex: SWISS-WEBSTER/FEMALE, Route: DERMAL, Dose: 0, 1% IN 0.1 ML 0.1% SODIUM LAURYL SULFATE 1/WK FOR 18 MO (STUDY DURATION: 18 MO)
  carcinogen call: inactive; negative
Species: MOUSE, Strain/Sex: SWISS-WEBSTER/MALE, Route: DERMAL, Dose: 0, 1% IN 0.1 ML 0.1% SODIUM LAURYL SULFATE 1/WK FOR 18 MO (STUDY DURATION: 18 MO)
  carcinogen call: inactive; negative

## CCCC1O[C@@H]2C[C@H]3[C@@H]4CCC5=CC(=O)C=C[C@]5(C)[C@H]4[C@@H](O)C[C@]3(C)[C@]2(C(=O)CO)O1 (some centres not stated)
Species: RAT, Strain/Sex: SPRAGUE-DAWLEY/MALE, Route: ORAL, Dose: 0, 5 UG/ML IN DRINKING WATER FOR AN AVERAGE DAILY DOSE OF 46.6 UG/KG FOR 104 WK (STUDY DURATION: 104 WK), Tumor Site: Type of Lesion: LIVER: HEPATOCELLULAR ADENOMA OR CARCINOMA
  carcinogen call: active; positive

## Cc1cc(-c2ccccc2C)ccc1N=O
Species: HAMSTER, Strain/Sex: SYRIAN/FEMALE, Route: SUBCUTANEOUS, Dose: 0.15 MMOL/KG IN PEANUT OIL 1/WK FOR 37 WK (TOTAL DOSE 5.6 MMOL/KG), Tumor Site: Type of Lesion: INJECTION SITE: RHABDOMYOSARCOMA, SPINDLE CELL CARCINOMA, PLEIOMORPHIC SARCOMA
  carcinogen call: active; positive
Species: HAMSTER, Strain/Sex: SYRIAN/MALE, Route: SUBCUTANEOUS, Dose: 0.15 MMOL/KG IN PEANUT OIL 1/WK FOR 37 WK (TOTAL DOSE 5.6 MMOL/KG), Tumor Site: Type of Lesion: INJECTION SITE: RHABDOMYOSARCOMA, PLEIOMORPHIC SARCOMA
  carcinogen call: active; positive
